Experimental data taken from ChEMBL document CHEMBL4613208, “Isatin derivatives and their anti-bacterial activities” (Eur J Med Chem, 2019).
Values after ≈ are worked out from the molar mass of the structure shown.

Experiments:
[1] = tested on: Pseudomonas aeruginosa; test: Antibacterial activity against Pseudomonas aeruginosa; format: functional, organism-based
[2] = tested on: Salmonella typhi; test: Antibacterial activity against Salmonella typhi; format: functional, Salmonella enterica subsp. enterica serovar Typhi; settings: Salmonella enterica
[3] = tested on: Pseudomonas aeruginosa; test: Antibacterial activity against Pseudomonas aeruginosa after 24 hrs by paper disc diffusion technique; format: functional; settings: Pseudomonas aeruginosa, 24 h; read-out: MIC
[4] = tested on: Micrococcus luteus; test: Antibacterial activity against Micrococcus luteus after 24 hrs by paper disc diffusion technique; format: functional; settings: Micrococcus luteus, 24 h; read-out: MIC
[5] = tested on: Klebsiella pneumoniae; test: Antibacterial activity against Klebsiella pneumoniae after 24 hrs by paper disc diffusion technique; format: functional; settings: Klebsiella pneumoniae, 24 h; read-out: MIC
[6] = tested on: Escherichia coli; test: Antibacterial activity against Escherichia coli after 24 hrs by paper disc diffusion technique; format: functional; settings: Escherichia coli, 24 h; read-out: MIC
[7] = tested on: Staphylococcus aureus; test: Antibacterial activity against Staphylococcus aureus after 24 hrs by paper disc diffusion technique; format: functional; settings: Staphylococcus aureus, 24 h; read-out: MIC
[8] = tested on: Staphylococcus epidermidis; test: Antibacterial activity against Staphylococcus epidermidis after 24 hrs by paper disc diffusion technique; format: functional; settings: Staphylococcus epidermidis, 24 h; read-out: MIC
[9] = tested on: Bacillus cereus; test: Antibacterial activity against Bacillus cereus assessed as zone of inhibition at 100 ug/ml; format: functional; settings: for zone of inhibition at 100 µg/mL: read-out: IZ
[10] = tested on: Escherichia coli; test: Antibacterial activity against Escherichia coli assessed as zone of inhibition at 100 ug/ml; format: functional; settings: for zone of inhibition at 100 µg/mL: read-out: IZ
[11] = tested on: Staphylococcus aureus; test: Antibacterial activity against Staphylococcus aureus assessed as zone of inhibition at 100 ug/ml; format: functional; settings: for zone of inhibition at 100 µg/mL: read-out: IZ
[12] = tested on: Pseudomonas aeruginosa; test: Antibacterial activity against Pseudomonas aeruginosa assessed as zone of inhibition at 100 ug/ml; format: functional; settings: for zone of inhibition at 100 µg/mL: read-out: IZ
[13] = tested on: Escherichia coli; test: Antibacterial activity against Escherichia coli; format: functional, organism-based
[14] = tested on: Staphylococcus aureus; test: Antibacterial activity against Staphylococcus aureus; format: functional, organism-based

Molecule	MIC [1]	zone of inhibition at 100 µg/mL [9]	zone of inhibition at 100 µg/mL [10]	zone of inhibition at 100 µg/mL [11]	zone of inhibition at 100 µg/mL [12]	other results
Cc1ccc(NC(=O)CN2C(=O)/C(=N\c3ccccc3)c3ccccc32)cc1C	3 to 324 nM	–	–	–	–	MIC [2]: 3 to 324 nM (≈ 1.15 to 124 ng/mL)
O=C(O)c1cn(C2CC2)c2cc(N3CCN(CN4C(=O)/C(=N/c5ccc(/N=C/c6ccccc6O)cc5)c5cc(F)ccc54)CC3)c(F)cc2c1=O	–	–	–	–	–	MIC [3]: 7.81 to 125 µg/mL (≈ 11.1 to 178 µM); MIC [4]: 7.81 to 125 µg/mL (≈ 11.1 to 178 µM); MIC [5]: 7.81 to 125 µg/mL (≈ 11.1 to 178 µM); MIC [6]: 7.81 to 125 µg/mL (≈ 11.1 to 178 µM); MIC [7]: 7.81 to 125 µg/mL (≈ 11.1 to 178 µM); MIC [8]: 7.81 to 125 µg/mL (≈ 11.1 to 178 µM)
Cc1nc2ccccc2cc1C(=O)N/N=C1\C(=O)Nc2ccc(F)cc21	–	6 to 19 mm	6 to 19 mm	6 to 19 mm	6 to 19 mm	–
Cc1ccc(NC(=O)CN2C(=O)/C(=N\c3ccccc3)c3ccccc32)cc1	3 to 324 nM	–	–	–	–	MIC [2]: 3 to 324 nM (≈ 1.11 to 120 ng/mL)
CN1CCN(CN2C(=O)/C(=N\NC(=O)COc3ccc(N4C(=O)C(Cl)C4c4ccccc4)c4cccnc34)c3ccccc32)CC1 (stereo unspecified)	–	6 to 19 mm	6 to 19 mm	6 to 19 mm	6 to 19 mm	–
Cc1nc2ccccc2cc1C(=O)N/N=C1\C(=O)Nc2cc(Cl)cc(Cl)c21	–	6 to 19 mm	6 to 19 mm	6 to 19 mm	6 to 19 mm	–
Cc1ccc(NC(=O)CN2C(=O)/C(=N\c3cc(C)ccc3C)c3ccccc32)c(C)c1	3 to 15 nM	–	–	–	–	MIC [2]: 3 to 15 nM (≈ 1.23 to 6.17 ng/mL)
Cc1nc2ccccc2cc1C(=O)N/N=C1\C(=O)Nc2c(Br)cccc21	–	6 to 19 mm	6 to 19 mm	6 to 19 mm	6 to 19 mm	–
O=C(COc1ccc(N2C(=O)C(Cl)C2c2ccc(Cl)cc2)c2cccnc12)N/N=C1\C(=O)N(CN2CCCCC2)c2ccccc21 (stereo unspecified)	–	6 to 19 mm	6 to 19 mm	6 to 19 mm	6 to 19 mm	–
Cc1ccc(C2SCC(=O)N2c2ccc(OCC(=O)N/N=C3\C(=O)N(CN4CCCCC4)c4ccccc43)c3ncccc23)cc1 (stereo unspecified)	–	6 to 19 mm	6 to 19 mm	6 to 19 mm	6 to 19 mm	–
COc1cccc(NC(=O)CN2C(=O)/C(=N\c3cc(C)ccc3C)c3ccccc32)c1	3 to 15 nM	–	–	–	–	MIC [2]: 3 to 15 nM (≈ 1.24 to 6.2 ng/mL)
Cc1nc2ccccc2cc1C(=O)N/N=C1\C(=O)Nc2ccc(Cl)c(Cl)c21	–	6 to 19 mm	6 to 19 mm	6 to 19 mm	6 to 19 mm	–
Cc1c(C)c2c(c(C)c1O)CCC(C)(C(=O)N/N=C1\C(=O)Nc3cc(Cl)ccc31)O2 (stereo unspecified)	12.5 to 100 µg/mL	–	–	–	–	MIC [13]: 12.5 to 100 µg/mL (≈ 29.2 to 234 µM); MIC [14]: 12.5 to 100 µg/mL (≈ 29.2 to 234 µM)
Cc1c(C)c2c(c(C)c1O)CCC(C)(C(=O)N/N=C1\C(=O)Nc3ccccc31)O2 (stereo unspecified)	12.5 to 100 µg/mL	–	–	–	–	MIC [13]: 12.5 to 100 µg/mL (≈ 31.8 to 254 µM); MIC [14]: 12.5 to 100 µg/mL (≈ 31.8 to 254 µM)
CC1(C)S[C@@H]2[C@H](NC(=O)Cc3ccccc3)C(=O)N2[C@H]1C(=O)O [PENICILLIN G]	–	–	–	–	–	IC50 [1]: 631 µM; IC50 [13]: 631 µM; IC50 [14]: 631 µM
Cc1ccc(C)c(/N=C2\C(=O)N(CC(=O)Nc3ccc(C)c(C)c3)c3ccccc32)c1	3 to 324 nM	–	–	–	–	MIC [2]: 3 to 324 nM (≈ 1.23 to 133 ng/mL)
Cc1nc2ccccc2cc1C(=O)N/N=C1\C(=O)Nc2c(Br)cc(Br)cc21	–	6 to 19 mm	6 to 19 mm	6 to 19 mm	6 to 19 mm	–
Cc1nc2ccccc2cc1C(=O)N/N=C1\C(=O)Nc2c1ccc(Cl)c2Cl	–	6 to 19 mm	6 to 19 mm	6 to 19 mm	6 to 19 mm	–
Cc1ccc(C)c(/N=C2\C(=O)N(CC(=O)Nc3ccccc3)c3ccccc32)c1	3 to 324 nM	–	–	–	–	MIC [2]: 3 to 324 nM (≈ 1.15 to 124 ng/mL)
CC[C@H]1OC(=O)[C@H](C)[C@@H](O[C@H]2C[C@@](C)(OC)[C@@H](O)[C@H](C)O2)[C@H](C)[C@@H](O[C@@H]2O[C@H](C)C[C@H](N(C)C)[C@H]2O)[C@](C)(O)C[C@@H](C)CN(C)[C@H](C)[C@@H](O)[C@]1(C)O [AZITHROMYCIN]	6.25 to 12.5 µg/mL	–	–	–	–	MIC [13]: 6.25 to 12.5 µg/mL (≈ 8.34 to 16.7 µM); MIC [14]: 6.25 to 12.5 µg/mL (≈ 8.34 to 16.7 µM)
COc1ccc(C2SCC(=O)N2c2ccc(OCC(=O)N/N=C3\C(=O)N(CN4CCCCC4)c4ccccc43)c3ncccc23)cc1 (stereo unspecified)	–	6 to 19 mm	6 to 19 mm	6 to 19 mm	6 to 19 mm	–
GENTAMICIN	–	–	–	–	–	inhibition zone (IZ) [9]: 19 to 27 mm; inhibition zone (IZ) [10]: 19 to 27 mm; inhibition zone (IZ) [11]: 19 to 27 mm; inhibition zone (IZ) [12]: 19 to 27 mm
Cc1c(C)c2c(c(C)c1O)CCC(C)(C(=O)N/N=C1\C(=O)Nc3ccc(Br)cc31)O2 (stereo unspecified)	12.5 to 100 µg/mL	–	–	–	–	MIC [13]: 12.5 to 100 µg/mL (≈ 26.5 to 212 µM); MIC [14]: 12.5 to 100 µg/mL (≈ 26.5 to 212 µM)
O=C(COc1ccc(N2C(=O)CSC2c2ccc([N+](=O)[O-])cc2)c2cccnc12)N/N=C1\C(=O)N(CN2CCCCC2)c2ccccc21 (stereo unspecified)	–	6 to 19 mm	6 to 19 mm	6 to 19 mm	6 to 19 mm	–
